Measured values published in patent US10772836B2, “Method for producing particles” (RICOH COMPANY, LTD., priority 2016, dated 2020).
One block for each compound: values may come before it.

Assays:
[1] = Oral absorbability of […], blood drug concentration after oral administration (Test Example 6); type: in vivo; conditions: rat, plasma, male SD rats, single oral dose 10 mg/kg in terms of […]
Protocol: In order to evaluate an oral absorbability of the pharmaceutical particles produced in Example 2, the pharmaceutical particles of Example 2 and […] bulk powder were orally administrated to male SD rats (from 6 to 8 week-old, available from Japan SLC, Inc.) and then blood drug concentrations were measured over time. Each powder was suspended in water and administrated through a single-dose forced oral administration to the male SD rats at 10 mg/kg in terms of […]. After the oral administration, blood was collected from tail veins over time, transferred to heparinized micro test tubes, and cooled with ice immediately. After the cooling, the blood was rapidly centrifuged to obtain blood plasma. The resultant blood plasma was quantified by an ultra-high performance liquid chromatography (available from Waters) equipped with, as a detector, a single quadrupole mass spectrometer (ACQUITY SQD, available from Waters).

[2] = Evaluation test for dissolution property in intrapulmonary-environment imitating liquid (Test Example 7); type: physicochemical; conditions: 37 degrees Celsius, 30 spm
Protocol: Ten milligrams of the pharmaceutical particles were added to 100 mL of an intrapulmonary-environment imitating liquid (0.169 g of magnesium chloride, 5.016 g of sodium chloride, 0.249 g of potassium chloride, 0.059 g of anhydrous sodium sulfate, 0.306 g of calcium chloride dehydrate, 0.794 g of sodium acetate trihydrate, 2.170 g of sodium hydrogen carbonate, 0.080 g of sodium citrate dehydrate, 0.118 g of disodium hydrogen-phosphate, and 0.167 g of dipalmitoylphosphatidylcholine in 1 L of water). […] Thus, the “dissolution property” was evaluated.

[3] = system: blood calcium concentration; experiment: Drug efficacy after transpulmonary administration, blood calcium concentration (Test Example 9); type: in vivo; conditions: male SD rats, transpulmonary 40 micrograms/animal in terms of CALCITONIN, time zero = 100%
Protocol: A powder preparation prepared using the pharmaceutical particles of Example 3 was evaluated for a drug efficacy after transpulmonary administration. The powder preparation was prepared by mixing the pharmaceutical particles of Example 3 with lactose (average particle diameter: 50 micrometers, RESPITOSE, available from DMV Japan) in an amount of 5 times as much as the amount of the pharmaceutical particles. The powder preparation was transpulmonary administrated (40 micrograms/animal in terms of CALCITONIN) to male SD rats (from 6 to 8 week-old, available from Japan SLC, Inc.) and then a blood calcium concentration after the administration was measured over time. As a control group, a simply mixed powder was prepared by molding a mixture of CALCITONIN bulk powder and lactose. The CALCITONIN has a pharmacological action of decreasing the blood calcium concentration. Therefore, the blood calcium concentration was selected as an indicator for evaluating the drug efficacy of the pharmaceutical particles of Example 3. The pharmaceutical particles were transpulmonary administrated by inserting an inhaler (DP-4, available from Ina Research Inc.) into the airway under inhalation anesthesia with isoflurane and feeding compressed air. A time point immediately before the transpulmonary administration was defined as time zero. Change in blood calcium concentration over time was evaluated assuming that a blood calcium concentration at the time zero was 100%. The blood calcium concentration was measured using a METALLOASSAY calcium (Ca) measurement LS kit CPZIII (available from Metallogenics Co., Ltd.).

- bioavailability [1]: 1.2%
- AUC(0-inf) [1]: 800 ± 400 ng·h/mL
- Cmax [1]: 100 ng/mL
- Tmax [1]: 1.8 ± 0.7 h
- half-life [1]: 2.9 ± 0.7 h
Compound: COc1ccc(/C=C/C(=O)Nc2ccccc2C(=O)O)cc1OC [Tranilast]

- Dissolution amount ([2]; time 0 hour): 0 µg/mL
- Dissolution amount ([2]; time 0.25 hour): 9.56 ± 0.03 µg/mL
- Dissolution amount ([2]; time 0.5 hour): 9.88 ± 0.13 µg/mL
- Dissolution amount ([2]; time 1 hour): 9.68 ± 0.20 µg/mL
- Dissolution amount ([2]; time 2 hour): 9.09 ± 0.04 µg/mL
- Dissolution amount ([2]; time 4 hour): 9.01 ± 0.44 µg/mL
- Dissolution amount ([2]; time 6 hour): 9.39 ± 0.14 µg/mL
- Dissolution amount ([2]; time 12 hour): 8.59 ± 0.15 µg/mL
- Dissolution amount ([2]; time 60 hour): 8.63 ± 0.02 µg/mL
Compound: Calcitonin [Calcitonin bulk powder]
- Blood calcium concentration ([3]; time 0 h): 100%
- Blood calcium concentration ([3]; time 0.25 h): 81.7 ± 11.6%
- Blood calcium concentration ([3]; time 0.5 h): 74.6 ± 0.9%
- Blood calcium concentration ([3]; time 1 h): 81.1 ± 10.1%
- Blood calcium concentration ([3]; time 2 h): 79.5 ± 7.1%
- Blood calcium concentration ([3]; time 4 h): 96.7 ± 5.1%
- Blood calcium concentration ([3]; time 6 h): 99.1 ± 12.6%
- Blood calcium concentration ([3]; time 8 h): 102.1 ± 15.9%
- Blood calcium concentration ([3]; time 12 h): 104.3 ± 13.8%
- Blood calcium concentration ([3]; time 24 h): 110.9 ± 5.5%
